Calls of active or inactive are those of the source. No cut-off for these calls is given here.
What was measured:
HCC827 [1] = assay: Antiproliferative activity against human HCC827 cells harboring EGFR E746-A750 deletion mutant after 72 hrs by MTT assay; assay type: functional, cell-based; settings: HCC827, 72 h
NCI-H1975 = assay: Antiproliferative activity against human NCI-H1975 cells harboring EGFR L858R/T790M double mutant after 72 hrs by MTT assay; assay type: functional, cell-based; settings: NCI-H1975, 72 h
A549 = assay: Antiproliferative activity against human A549 cells harboring wild type EGFR after 72 hrs by MTT assay; assay type: cell-based; settings: A549, 72 h
[2] = target: Epidermal growth factor receptor (Homo sapiens, UniProt P00533); assay: Inhibition of wild type EGFR (unknown origin) using Poly (Glu, Tyr) as substrate after 40 mins by kinase-Glo luminescence assay
Epidermal growth factor receptor (Homo sapiens, UniProt P00533), sequence (P00533 whole entry): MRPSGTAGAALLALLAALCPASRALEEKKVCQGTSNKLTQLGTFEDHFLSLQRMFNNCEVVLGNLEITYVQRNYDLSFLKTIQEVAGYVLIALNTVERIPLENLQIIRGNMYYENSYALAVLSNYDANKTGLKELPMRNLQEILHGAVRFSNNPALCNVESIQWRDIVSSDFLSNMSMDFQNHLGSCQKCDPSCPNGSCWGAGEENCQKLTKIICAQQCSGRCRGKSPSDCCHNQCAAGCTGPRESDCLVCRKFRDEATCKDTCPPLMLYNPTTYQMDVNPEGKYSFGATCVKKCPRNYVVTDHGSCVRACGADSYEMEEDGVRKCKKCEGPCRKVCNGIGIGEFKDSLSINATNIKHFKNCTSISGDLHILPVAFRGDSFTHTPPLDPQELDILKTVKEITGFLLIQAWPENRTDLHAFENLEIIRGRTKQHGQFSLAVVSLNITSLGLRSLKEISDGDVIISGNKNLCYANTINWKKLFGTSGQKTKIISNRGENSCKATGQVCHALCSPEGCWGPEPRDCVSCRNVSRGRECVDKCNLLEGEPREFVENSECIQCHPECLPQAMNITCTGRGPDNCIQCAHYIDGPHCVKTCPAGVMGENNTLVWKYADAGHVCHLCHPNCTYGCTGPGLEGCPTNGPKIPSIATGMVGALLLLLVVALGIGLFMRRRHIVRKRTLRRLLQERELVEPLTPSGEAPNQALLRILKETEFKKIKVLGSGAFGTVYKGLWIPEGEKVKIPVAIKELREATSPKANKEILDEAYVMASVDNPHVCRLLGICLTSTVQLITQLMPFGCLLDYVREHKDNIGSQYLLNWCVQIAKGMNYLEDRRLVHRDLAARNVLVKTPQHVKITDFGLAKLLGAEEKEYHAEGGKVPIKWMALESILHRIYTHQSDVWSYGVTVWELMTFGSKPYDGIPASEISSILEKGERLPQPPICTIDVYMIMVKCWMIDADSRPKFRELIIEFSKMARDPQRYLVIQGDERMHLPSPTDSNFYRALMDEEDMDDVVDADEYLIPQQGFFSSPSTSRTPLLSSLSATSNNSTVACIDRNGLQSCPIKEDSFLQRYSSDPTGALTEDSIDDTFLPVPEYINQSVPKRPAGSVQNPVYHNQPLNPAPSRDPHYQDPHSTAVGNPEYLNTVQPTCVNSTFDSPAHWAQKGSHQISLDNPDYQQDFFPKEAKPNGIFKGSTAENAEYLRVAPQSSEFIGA

[3] = target: Epidermal growth factor receptor (Homo sapiens, UniProt P00533, L858R); assay: Inhibition of wild type EGFR L858R mutant (unknown origin) using Poly (Glu, Tyr) as substrate after 40 mins by kinase-Glo luminescence assay
Epidermal growth factor receptor (Homo sapiens, UniProt P00533, L858R), sequence (P00533 25-1210 L858R limits assumed): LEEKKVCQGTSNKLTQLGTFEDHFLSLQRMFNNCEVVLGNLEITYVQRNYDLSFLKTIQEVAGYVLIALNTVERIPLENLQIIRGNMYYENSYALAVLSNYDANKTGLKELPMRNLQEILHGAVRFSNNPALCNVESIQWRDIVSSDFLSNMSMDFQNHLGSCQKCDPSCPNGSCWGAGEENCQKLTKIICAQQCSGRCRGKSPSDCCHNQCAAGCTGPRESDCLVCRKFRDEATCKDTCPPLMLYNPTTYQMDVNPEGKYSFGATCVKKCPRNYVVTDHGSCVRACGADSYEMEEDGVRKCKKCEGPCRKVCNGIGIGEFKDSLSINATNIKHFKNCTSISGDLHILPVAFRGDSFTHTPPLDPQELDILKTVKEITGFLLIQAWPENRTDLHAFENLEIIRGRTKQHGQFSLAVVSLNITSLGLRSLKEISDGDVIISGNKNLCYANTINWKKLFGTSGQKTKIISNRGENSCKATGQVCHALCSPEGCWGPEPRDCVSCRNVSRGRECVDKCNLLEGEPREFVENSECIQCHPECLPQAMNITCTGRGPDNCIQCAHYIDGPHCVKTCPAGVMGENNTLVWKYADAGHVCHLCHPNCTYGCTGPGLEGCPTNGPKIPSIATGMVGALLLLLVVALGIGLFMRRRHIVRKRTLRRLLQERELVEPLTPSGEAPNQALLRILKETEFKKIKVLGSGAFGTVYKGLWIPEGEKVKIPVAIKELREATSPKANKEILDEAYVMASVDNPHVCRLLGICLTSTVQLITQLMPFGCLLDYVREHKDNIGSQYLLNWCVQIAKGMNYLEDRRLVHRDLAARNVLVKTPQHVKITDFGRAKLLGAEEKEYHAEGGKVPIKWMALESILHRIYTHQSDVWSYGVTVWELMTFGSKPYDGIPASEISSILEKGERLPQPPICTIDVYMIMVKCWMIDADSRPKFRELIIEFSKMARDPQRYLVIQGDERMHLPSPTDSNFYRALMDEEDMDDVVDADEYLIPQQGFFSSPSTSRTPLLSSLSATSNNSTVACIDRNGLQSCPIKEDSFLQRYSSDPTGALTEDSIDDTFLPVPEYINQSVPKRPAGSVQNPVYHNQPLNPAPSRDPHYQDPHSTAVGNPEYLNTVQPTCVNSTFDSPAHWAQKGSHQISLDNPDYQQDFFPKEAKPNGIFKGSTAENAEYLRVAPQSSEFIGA

[4] = target: Epidermal growth factor receptor (Homo sapiens, UniProt P00533, L858R/T790M); assay: Inhibition of wild type EGFR L858R/T790M double mutant (unknown origin) using Poly (Glu, Tyr) as substrate after 40 mins by kinase-Glo luminescence assay
[5] = target: Epidermal growth factor receptor (Homo sapiens, UniProt P00533, C797S/L858R/T790M); assay: Inhibition of wild type EGFR L858R/T790M/C797S mutant (unknown origin) using Poly (Glu, Tyr) as substrate after 40 mins by kinase-Glo luminescence assay
Epidermal growth factor receptor (Homo sapiens, UniProt P00533, C797S/L858R/T790M), sequence (P00533 25-1210 T790M/C797S/L858R limits assumed): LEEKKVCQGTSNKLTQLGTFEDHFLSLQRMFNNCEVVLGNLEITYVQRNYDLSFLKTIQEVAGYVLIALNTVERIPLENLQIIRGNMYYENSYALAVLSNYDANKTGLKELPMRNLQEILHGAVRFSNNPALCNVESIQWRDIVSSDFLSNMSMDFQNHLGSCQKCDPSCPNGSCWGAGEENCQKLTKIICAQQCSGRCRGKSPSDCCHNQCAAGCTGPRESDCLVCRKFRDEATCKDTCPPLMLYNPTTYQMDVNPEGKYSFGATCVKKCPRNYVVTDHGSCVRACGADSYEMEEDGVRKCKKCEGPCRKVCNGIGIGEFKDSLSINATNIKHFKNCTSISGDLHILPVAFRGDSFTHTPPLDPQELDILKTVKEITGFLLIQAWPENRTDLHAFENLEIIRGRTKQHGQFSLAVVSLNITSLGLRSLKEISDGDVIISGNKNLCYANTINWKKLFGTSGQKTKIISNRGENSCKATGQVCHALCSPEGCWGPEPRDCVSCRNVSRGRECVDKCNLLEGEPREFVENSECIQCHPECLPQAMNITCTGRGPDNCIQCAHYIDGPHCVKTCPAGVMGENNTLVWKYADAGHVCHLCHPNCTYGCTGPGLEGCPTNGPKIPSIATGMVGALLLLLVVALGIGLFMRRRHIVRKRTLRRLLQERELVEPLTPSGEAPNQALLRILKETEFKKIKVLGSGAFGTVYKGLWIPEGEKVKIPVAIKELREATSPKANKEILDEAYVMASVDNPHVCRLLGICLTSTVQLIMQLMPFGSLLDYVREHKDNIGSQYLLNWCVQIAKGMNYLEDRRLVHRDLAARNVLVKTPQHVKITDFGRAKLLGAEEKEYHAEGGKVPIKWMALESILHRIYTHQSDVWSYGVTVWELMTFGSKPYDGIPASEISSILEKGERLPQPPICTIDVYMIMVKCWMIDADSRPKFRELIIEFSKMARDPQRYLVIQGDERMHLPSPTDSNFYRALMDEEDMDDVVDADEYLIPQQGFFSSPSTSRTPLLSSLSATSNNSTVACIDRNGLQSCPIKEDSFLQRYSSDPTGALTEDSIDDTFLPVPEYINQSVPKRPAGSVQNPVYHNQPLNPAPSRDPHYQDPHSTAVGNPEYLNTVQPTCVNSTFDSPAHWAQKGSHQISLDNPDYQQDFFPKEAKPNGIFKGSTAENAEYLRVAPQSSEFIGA

HCC827 [6] = assay: Induction of apoptosis in human HCC827 cells harboring EGFR E746-A750 deletion mutant assessed as early apoptotic cells at 3 uM after 24 hrs by Annexin V-FITC/propidium iodide staining based flow cytometry (reference value: 1.34%); assay type: functional
HCC827 [7] = assay: Induction of apoptosis in human HCC827 cells harboring EGFR E746-A750 deletion mutant assessed as late apoptotic cells at 3 uM after 24 hrs by Annexin V-FITC/propidium iodide staining based flow cytometry (reference value: 27.14%); assay type: functional
[8] = tested on: Epidermal growth factor receptor (Homo sapiens), P00533 [UNDEFINED MUTATION]; assay: Inhibition of EGFR E746-A750 deletion mutant in human HCC827 cells assessed as reduction in EGFR phosphorylation after 8 hrs by Western blot analysis; assay type: cell-based
Epidermal growth factor receptor (Homo sapiens), P00533 [UNDEFINED MUTATION], sequence (P00533 whole entry, looked up, stated change not applied): as the sequence (P00533 whole entry) above

[9] = tested on: Epidermal growth factor receptor (Homo sapiens), P00533 [UNDEFINED MUTATION]; assay: Inhibition of EGFR E746-A750 deletion mutant in human HCC827 cells assessed as reduction in EGFR phosphorylation at 3.33 uM after 8 hrs by Western blot analysis; assay type: cell-based
[10] = tested on: Epidermal growth factor receptor (Homo sapiens), P00533 [UNDEFINED MUTATION]; assay: Inhibition of EGFR E746-A750 deletion mutant in human HCC827 cells assessed as reduction in ERK phosphorylation at 3.33 uM after 8 hrs by Western blot analysis; assay type: cell-based

IC50 (HCC827 [1]) [nM]	IC50 (NCI-H1975) [nM]	IC50 (A549) [nM]	IC50 [5] [nM]	SMILES	also measured
650	790	740	62.2	CN(C)C1CCN(c2ccc(Nc3cc4c(N5CCCC5)nc(Nc5ccccc5)nc4cn3)nc2)CC1	IC50 [2]: 5.5 nM; IC50 [3]: 1.6 nM; IC50 [4]: 65.6 nM
> 10000				CN1CCN(c2ccc(Nc3cc4c(N(C)C)nc(Nc5ccccc5)nc4cn3)cc2)CC1	
5430				CN1CCN(c2ccc(Nc3cc4c(N5CCOCC5)nc(Nc5cccnc5)nc4cn3)nc2)CC1	
1160	7350	> 10000		CN1CCN(c2ccc(Nc3cc4c(N(C)C)nc(Nc5ccccc5)nc4cn3)nc2)CC1	
240	590	690	51.3	CN(CCO)c1nc(Nc2ccccc2)nc2cnc(Nc3ccc(N4CCC(N(C)C)CC4)cn3)cc12	
270	2050	1330	23	CN1CCN(c2ccc(Nc3cc4c(N5CCCCC5)nc(Nc5ccccc5)nc4cn3)nc2)CC1	IC50 [2]: 1.1 nM; IC50 [3]: 1.1 nM; IC50 [4]: 45 nM
> 10000				Cn1cc(Nc2cc3c(N4CCOCC4)nc(Nc4ccccc4)nc3cn2)cn1	
7900	> 10000			CN(C)C1CCN(c2ccc(Nc3cc4c(N5CCOCC5)nc(NCc5ccccn5)nc4cn3)nc2)CC1	
3660	2170			CN1CCN(c2ccc(Nc3cc4c(N5CCCC5)nc(Nc5cnn(C)c5)nc4cn3)nc2)CC1	
1890	820	1300		CN(C)CCN(C)c1ccc(Nc2cc3c(N4CCCC4)nc(Nc4ccccc4)nc3cn2)nc1	
390	1160	970		CN(C)C1CCN(c2ccc(Nc3cc4c(N5CCOCC5)nc(Nc5ccc(F)c(Cl)c5)nc4cn3)nc2)CC1	
6910	> 10000			CN(C)C1CCN(c2ccc(Nc3cc4c(N5CCOCC5)nc(OC5CCOCC5)nc4cn3)nc2)CC1	
1390	520			CN1CCN(c2ccc(Nc3cc4c(N5CCCC5)nc(Nc5ccc(F)c(Cl)c5)nc4cn3)nc2)CC1	
1820	12400			CN(C)C1CCN(c2ccc(Nc3cc4c(N5CCOCC5)nc(Nc5cccnc5)nc4cn3)nc2)CC1	
1350	2470	8700		CN1CCN(c2ccc(Nc3cc4c(N5CCCC5)nc(Nc5ccccc5)nc4cn3)nc2)CC1	IC50 [2]: 4.4 nM; IC50 [3]: 2.3 nM; IC50 [4]: 85 nM
1010	> 10000	> 10000		CN1CCN(c2ccc(Nc3cc4c(N5CCCC5)nc(Nc5cccc(F)c5)nc4cn3)nc2)CC1	
44	400	1060	7.2	CN(C)C1CCN(c2ccc(Nc3cc4c(N5CCC(CO)CC5)nc(Nc5ccc(F)cc5)nc4cn3)nc2)CC1	IC50 [2]: 10.4 nM; IC50 [3]: 1.1 nM; IC50 [4]: 34 nM; inhibition [8]: Dose-dependent effect; inhibition [9]: inactive; inhibition [10]: inactive; Activity (HCC827 [6]): 6.21%; Activity (HCC827 [7]): 74.26%
200	1280	1020		CN1CCN(c2ccc(Nc3cc4c(N5CCOCC5)nc(Nc5ccccc5)nc4cn3)nc2)CC1	
> 10000	> 10000			CN(C)C1CCN(c2ccc(Nc3cc4c(N5CCOCC5)nc(OCC5CCOCC5)nc4cn3)nc2)CC1	

Further lines, the molecule ahead of its results:

SMILES	IC50 (HCC827 [1]) [nM]	IC50 (NCI-H1975) [nM]	IC50 (A549) [nM]	IC50 [5] [nM]	also measured
CN(C)C1CCN(c2ccc(Nc3cc4c(N5CCOCC5)nc(Nc5ccccc5)nc4cn3)nc2)CC1	110	680	550	54.1	IC50 [2]: 4.6 nM; IC50 [3]: 3.9 nM; IC50 [4]: 57.7 nM; Activity (HCC827 [6]): 9.32%; Activity (HCC827 [7]): 64.85%
CN(C)C1CCN(c2ccc(Nc3cc4c(N5CCOCC5)nc(NCc5ccccc5)nc4cn3)nc2)CC1	1640	7160			
CN(C)C1CCN(c2ccc(Nc3cc4c(N5CCCCC5)nc(Nc5ccccc5)nc4cn3)nc2)CC1	240	1020	540	15	IC50 [2]: 0.9 nM; IC50 [3]: 4.9 nM; IC50 [4]: 23.2 nM
CN1CCN(c2ccc(Nc3cc4c(N5CCOCC5)nc(Nc5cccc(C(F)(F)F)c5)nc4cn3)nc2)CC1	> 10000				
CN(C)C1CCN(c2ccc(Nc3cc4c(N5CCOCC5)nc(Oc5cccnc5)nc4cn3)nc2)CC1	2510	> 10000			
CN(C)C1CCN(c2ccc(Nc3cc4c(N5CCOCC5)nc(Nc5ccc(F)cc5F)nc4cn3)nc2)CC1	350	980	1140	53.6	IC50 [2]: 0.9 nM; IC50 [3]: 2.1 nM; IC50 [4]: 30 nM
CN(C)CCN(C)c1nc(Nc2ccc(F)cc2)nc2cnc(Nc3ccc(N4CCC(N(C)C)CC4)cn3)cc12	450	900	830	24.7	
CN(C)C1CCN(c2ccc(Nc3cc4c(N5CCOCC5)nc(NCc5cccnc5)nc4cn3)nc2)CC1	> 10000				
C=CC(=O)Nc1cc(Nc2nccc(-c3cn(C)c4ccccc34)n2)c(OC)cc1N(C)CCN(C)C [OSIMERTINIB]	27				Activity (HCC827 [6]): 8.28%; Activity (HCC827 [7]): 68.1%
CN(C)C1CCN(c2ccc(Nc3cc4c(N5CCOCC5)nc(Nc5ccccn5)nc4cn3)nc2)CC1	1660	2650			
CN(C)C1CCN(c2ccc(Nc3cc4c(N5CCC(CO)CC5)nc(Nc5ccccc5)nc4cn3)nc2)CC1	64	420	690	82.9	IC50 [2]: 2.1 nM; IC50 [3]: 3.2 nM; IC50 [4]: 44.1 nM
CN(C)C1CCN(c2ccc(Nc3cc4c(N5CCOCC5)nc(Nc5cccc(C(F)(F)F)c5)nc4cn3)nc2)CC1	890	680	740		
CN(C)C1CCN(c2ccc(Nc3cc4c(N5CCOCC5)nc(Nc5ccc(F)cc5)nc4cn3)nc2)CC1	310	1670	530	28	IC50 [2]: 1.5 nM; IC50 [3]: 2.5 nM; IC50 [4]: 28.8 nM
CN(CCCO)c1nc(Nc2ccc(F)cc2)nc2cnc(Nc3ccc(N4CCC(N(C)C)CC4)cn3)cc12	80	300	420	51.9	
CN1CCN(c2ccc(Nc3cc4c(N5CCCC5)nc(Nc5ccccc5)nc4cn3)cc2)CC1	> 10000				
CN1CCN(c2nc(Nc3ccc(F)cc3)nc3cnc(Nc4ccc(N5CCC(N(C)C)CC5)cn4)cc23)CC1	130	550	600	34.8	

From ChEMBL document CHEMBL4196024, “Discovery of 2,4,6-trisubstitued pyrido[3,4-d]pyrimidine derivatives as new EGFR-TKIs” (Eur J Med Chem, 2018)
